The values that follow come from patent US20080038333A1, “Formulations For Poorly Soluble Drugs” (Bio-Dar Ltd., priority 2004, published 2008).

The nature of this series: Solvent evaporation of nanoemulsion, crystal formation (electron microscopy). Format: physicochemical. The note with it: evaporation performed after the beads formation, FIG. 4. As to the method:
The organic solvent (toluene) was evaporated with Rotavapor (R-114 BUCHI) from the emulsion to form a dispersion of lipophilic drug in water. The organic solvent evaporation was performed in four steps, water was added up to the initial weight after each step.

Structures are written as SMILES.

Consider `CCC(C)(C)C(=O)O[C@H]1C[C@@H](C)C=C2C=C[C@H](C)[C@H](CC[C@@H]3C[C@@H](O)CC(=O)O3)[C@H]21` [simvastatine], for which the “drug particle state after solvent evaporation” value is listed as “remain as nanoparticles”.
